# Reference: US20170304329A1 (THE UNIVERSITY OF KANSAS, priority 2014, published 2017)
# Key:
# Assay type in all cases: cell-based, human
# 253JBV cells [1] = assay: Cell proliferation, hexosaminidase assay; settings: for IC50: 48 h
# Protocol: (§1) To determine the effect of CPX on bladder cancer cell proliferation in T24 (MIBC) and 253-JBV (NMIBC) cells, 5,000 cells per well were seeded on to 96-well plates and grown overnight. The cells were then treated with increasing doses of CPX in RPMI media containing 10% FBS. Analysis of cell proliferation after the treatment period was estimated by the hexosaminidase assay. Briefly, the medium was removed and hexosaminidase substrate solution in citrate buffer pH 5 (7.5 mM), p-nitrophenol-N-acetyl-beta-D-glucosaminidase (Sigma Aldrich) was added at 75 μL per well. The plate was incubated at 37° C. in 100% humidity for 30 minutes. The reaction was stopped with 112.5 μL of 50 mM glycine containing 5 mM of EDTA (pH 10.4). The absorbance was measured at 405 nm. Experiments were conducted at n=6, and then repeated at least three times. The data were analyzed as percent of control, where the control wells were treated with equivalent amounts of DMSO alone. For IC50 calculations, a plot between the drug concentration and hexosaminidase activity was generated and the data was fitted either linearly or exponentially. The best fit was used for further processing of data.
# (§2) We determined and compared the effect of CPX with CPX-POM and CPX-glucuronide in vitro by performing proliferation assay. To determine the effect of CPX, CPX-POM and CPX-glucuronide on bladder cancer cell proliferation in T24 (MIBC) and 253-JBV (NMIBC) cells, 5,000 cells per well were seeded on to 96-well plates and grown overnight. The cells were then treated with increasing doses of CPX, CPX-POM and CPX-glucuronide in RPMI media containing 10% FBS. Analysis of cell proliferation after the treatment period was estimated by the hexosaminidase assay. Briefly, the medium was removed and hexosaminidase substrate solution in citrate buffer pH 5 (7.5 mM), p-nitrophenol-N-acetyl-beta-D-glucosaminidase (Sigma Aldrich) was added at 75 μL per well. The plate was incubated at 37° C. in 100% humidity for 30 minutes. The reaction was stopped with 112.5 μL of 50 mM glycine containing 5 mM of EDTA (pH 10.4). The absorbance was measured at 405 nm.
# (§3) Experiments were conducted at n=6, and then repeated at least three times. The data were analyzed as percent of control, where the control wells were treated with equivalent amounts of DMSO alone. For IC50 so calculations, a plot between the drug concentration and hexosaminidase activity was generated and the data was fitted either linearly or exponentially.
# T24 cells = assay: Cell proliferation, hexosaminidase assay
# Protocol: as §1, §2, §3
# [2] = system: 253-JBV bladder cancer cells; assay: Clonogenicity assay; settings: 48 h treatment, then 10 days
# Protocol: (§4) We next determined the long-term effect of ciclopirox (CPX) on bladder cancer cells using the clonogenicity assay. For this assay, 6-well plates were seeded with 500 viable cells and were allowed to grow for overnight. The cells were then incubated in the presence or absence of various concentrations (1 and 5 μM) of CPX for 48 h. The CPX containing medium was then removed, and the cells were washed in PBS and incubated for an additional 10 days in complete medium. Each treatment was done in triplicate. The colonies obtained were washed with PBS and fixed in 10% formalin for 10 min at room temperature and then washed with PBS followed by staining with crystal violet. The colonies were compared to untreated cells.
# (§5) The fresh medium was replaced and allowed to grow for 10 days. The colonies were stained with crystal violet and compared to untreated cells.
# T24 bladder cancer cells = assay: Clonogenicity assay; settings: 48 h treatment, then 10 days
# Protocol: as §4, §5
# [3] = system: Notch, Wnt and Hedgehog signaling pathways in T24 cells; assay: RT-PCR array of signal transduction pathways
# Protocol: We performed an RT-PCR array analyses as a preliminary study to identify the pathways affected by ciclopirox (CPX). Expression analysis was performed using RT2 Profiler™ PCR Arrays (SA Biosciences, Frederick, Md., USA) per the manufacturer's instructions. The Human signal transduction pathway finder polymerase chain reaction (PCR) array was used (cat. no. PAHS-014ZA). Briefly, Total RNA isolated from T24 cells using TRIZOL reagent was reverse transcribed with Superscript II reverse transcriptase in the presence of random hexanucleotide primers (all from Invitrogen, Carlsbad, Calif.). Complementary DNA (2 μg) was mixed with 1,275 μL RT2 SYBR Green qPCR Master Mix (PA-010; SA Biosciences) to make up a total volume of 2,550 μL. Each well received 25 μL of this mix. qPCR was performed on an Bio-Rad CFX machine following detection protocols recommended by SA Biosciences. Changes in mRNA expression were expressed as fold change relative to control.
# 253JBV cells [4] = assay: Proliferation with predicted CPX urine concentration in 20% normal urine; settings: 3 days treatment, 50 uM-1.5625 uM CPX in 20% normal urine, 72 h
# Protocol: We next determined the effect of CPX in normal urine on T24 and 253JBV cells upon everyday treatment for up to 72 h (3 days treatment). The idea behind this experiment is to see the effect of predicted concentration of CPX in human urine on bladder cancer cells as the patient's bladder will be exposed every day to the predicted concentration of CPX. Three sets of plates were used, one plate each for one day treatment, two days treatment and three days treatment of CPX (50-1.5625 uM). T24 and 253JBV cells were incubated with CPX in normal urine (20% normal urine in complete RPMI media). […] The effect of CPX was determined by hexosaminidase assay beyond the 12 hours of varying CPX concentration (25 h, 48 h, and 72 h). In two days treatment, the cells are exposed to 50 uM-1.5625 uM for two days and the effect was determined by hexosaminidase assay at 48 h and 72 h time points. In three days treatment, the cells are exposed to 50 uM-1.5625 uM for three days and the effect was determined by hexosaminidase assay at 72 h time point.
# 253JBV Cells were incubated with CPX in normal urine (20% normal urine in complete RPMI media). […] The effect of CPX was determined by hexosaminidase assay beyond the 12 hours of varying CPX concentration (25 h, 48 h, and 72 h). […]
compound,measurement,setting,value
"Cc1cc(C2CCCCC2)n(O)c(=O)c1 [CPX, 6-cyclohexyl-1-hydroxy-4-methylpyridin-2(1H)-one]",IC50,253JBV cells [1],3000 nM
same,IC50,253JBV cells [1]; Homo sapiens,2000 nM
same,effect on cell proliferation,253JBV cells [1]; up to 72 h,significant dose- and time-dependent decrease in cell proliferation
same,IC50,"T24 cells; Homo sapiens, T-24, 48 h, 48 h",4000 nM
same,effect on cell proliferation,T24 cells; up to 72 h,significant dose- and time-dependent decrease in cell proliferation
same,colony formation,[2],inhibited the number and size of colonies compared to control
same,colony formation,T24 bladder cancer cells,inhibited the number and size of colonies compared to control
same,mRNA expression of CSC signaling pathway genes,[3],significantly reduced the mRNA expression of Notch and its downstream signaling proteins
same,maximum inhibition of proliferation,253JBV cells [4],35%
